Measurements as given in ChEMBL document CHEMBL4699440, “Comprehensive review on the anti-bacterial activity of 1,2,3-triazole hybrids” (Eur J Med Chem, 2019).

Legend:
Type in all cases: functional
[1] = system: Bacillus cereus; experiment: Antibacterial activity against Bacillus cereus MTCC 430 incubated for 24 hrs by macrodilution tube method
[2] = system: Staphylococcus aureus; experiment: Antibacterial activity against Staphylococcus aureus MTCC 96 incubated for 24 hrs by macrodilution tube method
[3] = system: Pseudomonas aeruginosa; experiment: Antibacterial activity against Pseudomonas aeruginosa ATCC 27853 incubated for 16 to 18 hrs by serial plate dilution method; conditions: time hrs 16-18
[4] = system: Aspergillus fumigatus; experiment: Antifungal activity against Aspergillus fumigatus NCIM 902 incubated for 3 to 4 days by serial plate dilution method; conditions: time day 3-4
[5] = system: Aspergillus flavus; experiment: Antifungal activity against Aspergillus flavus NCIM 524 incubated for 3 to 4 days by serial plate dilution method; conditions: time day 3-4
[6] = system: Klebsiella pneumoniae; experiment: Antibacterial activity against Klebsiella pneumoniae incubated for 16 to 18 hrs by serial plate dilution method; conditions: time hrs 16-18
[7] = system: Escherichia coli; experiment: Antibacterial activity against Escherichia coli ATCC 25922 incubated for 16 to 18 hrs by serial plate dilution method; conditions: time hrs 16-18
[8] = system: Staphylococcus aureus; experiment: Antibacterial activity against methicillin-resistant Staphylococcus aureus ATCC 25923 incubated for 16 to 18 hrs by serial plate dilution method; conditions: time hrs 16-18
[9] = system: Trichophyton mentagrophytes; experiment: Antifungal activity against Trichophyton mentagrophytes incubated for 3 to 4 days by serial plate dilution method; conditions: time day 3-4
[10] = system: Talaromyces marneffei; experiment: Antifungal activity against Penicillium marneffei incubated for 3 to 4 days by serial plate dilution method; conditions: time day 3-4
[11] = system: Escherichia coli; experiment: Antibacterial activity against ESBL-producing Escherichia coli ATCC 25925 by CLSI-based broth dilution method
[12] = system: Enterococcus faecium; experiment: Antibacterial activity against vancomycin-resistant Enterococcus faecium by CLSI-based broth dilution method; conditions: time 24 hrs
[13] = system: Pseudomonas aeruginosa; experiment: Antibacterial activity against Pseudomonas aeruginosa ATCC 27853 by CLSI-based broth dilution method
[14] = system: Staphylococcus aureus; experiment: Antibacterial activity against methicillin-resistant Staphylococcus aureus ATCC 25923 by CLSI-based broth dilution method
[15] = system: Klebsiella pneumoniae; experiment: Antibacterial activity against Klebsiella pneumoniae ATCC 27736 by CLSI-based broth dilution method
[16] = system: Staphylococcus aureus; experiment: Antibacterial activity against methicillin-sensitive Staphylococcus aureus by CLSI-based broth dilution method

Measured: MIC

O=C1CCCC2=C1C(c1ccc(Br)cc1)c1cc3cc(OCc4cn(-c5ccnc6cc(Cl)ccc56)nn4)ccc3cc1O2 (configuration not stated)
16 µg/mL: [1] | [2]

CC1(C)CC(=O)C2=C(C1)Oc1cc3ccc(OCc4cn(-c5ccnc6cc(Cl)ccc56)nn4)cc3cc1C2c1ccc(Cl)cc1 (configuration not stated)
16 µg/mL: [1] | [2]

CC1(C)CC(=O)C2=C(C1)Oc1cc3ccc(OCc4cn(-c5ccnc6cc(Cl)ccc56)nn4)cc3cc1C2c1ccc(Br)cc1 (configuration not stated)
16 µg/mL: [1] | [2]

CC1(C)CC(=O)C2=C(C1)Oc1cc3ccc(OCc4cn(-c5ccnc6cc(Cl)ccc56)nn4)cc3cc1C2c1ccc([N+](=O)[O-])cc1 (configuration not stated)
16 µg/mL: [1] | [2]

Cc1c(C(=O)N/N=C/c2ccc([N+](=O)[O-])cc2)nnn1-c1cc(C(F)(F)F)nc2c(C(F)(F)F)cccc12
6.25 µg/mL: [3] | [4] | [5] | [6] | [7] | [8] | [9] | [10]

N=C(N)c1ccc2[nH]c(-c3ccc(OCc4cn(Cc5ccccc5)nn4)cc3)nc2c1
16 µg/mL: [11] | [12] | [13] | [14] | [15] | [16]

COc1ccc(-n2cc(COc3ccc(-c4nc5cc(C(=N)NC(C)C)ccc5[nH]4)cc3)nn2)cc1
8 µg/mL: [11] | [12] | [13] | [14] | [15] | [16]

Cc1ccc(C2C3=C(CCCC3=O)Oc3cc4ccc(OCc5cn(-c6ccnc7cc(Cl)ccc67)nn5)cc4cc32)cc1 (configuration not stated)
16 µg/mL: [1] | [2]

COc1ccc(C2C3=C(CC(C)(C)CC3=O)Oc3cc4ccc(OCc5cn(-c6ccnc7cc(Cl)ccc67)nn5)cc4cc32)cc1 (configuration not stated)
16 µg/mL: [1] | [2]

Cc1c(C(=O)N/N=C/c2ccc(O)cc2)nnn1-c1cc(C(F)(F)F)nc2c(C(F)(F)F)cccc12
6.25 µg/mL: [3] | [4] | [5] | [6] | [7] | [8] | [9] | [10]

Cc1c(C(=O)N/N=C/c2ccc(-c3ccccc3)cc2)nnn1-c1cc(C(F)(F)F)nc2c(C(F)(F)F)cccc12
6.25 µg/mL: [3] | [4] | [5] | [6] | [7] | [8] | [9] | [10]

CC1(C)CC(=O)C2=C(C1)Oc1cc3ccc(OCc4cn(-c5ccnc6cc(Cl)ccc56)nn4)cc3cc1C2c1ccccc1 (configuration not stated)
16 µg/mL: [1] | [2]

CC(C)NC(=N)c1ccc2[nH]c(-c3ccc(OCc4cn(-c5ccccc5)nn4)cc3)nc2c1
8 µg/mL: [11] | [12] | [13] | [14] | [15] | [16]

Cc1c(C(=O)N/N=C/c2cccnc2)nnn1-c1cc(C(F)(F)F)nc2c(C(F)(F)F)cccc12
6.25 µg/mL: [3] | [4] | [5] | [6] | [7] | [8] | [9] | [10]

COc1ccc(/C=N/NC(=O)c2nnn(-c3cc(C(F)(F)F)nc4c(C(F)(F)F)cccc34)c2C)cc1OC
6.25 µg/mL: [3] | [4] | [5] | [6] | [7] | [8] | [9] | [10]

CC1(C)CC(=O)C2=C(C1)Oc1cc3ccc(OCc4cn(-c5ccnc6cc(Cl)ccc56)nn4)cc3cc1C2c1cccc2ccccc12 (configuration not stated)
16 µg/mL: [1] | [2]

Cc1c(C(=O)N/N=C/c2ccccc2O)nnn1-c1cc(C(F)(F)F)nc2c(C(F)(F)F)cccc12
6.25 µg/mL: [3] | [4] | [5] | [6] | [7] | [8] | [9] | [10]

COc1ccc(/C=N/NC(=O)c2nnn(-c3cc(C(F)(F)F)nc4c(C(F)(F)F)cccc34)c2C)c([N+](=O)[O-])c1OC
6.25 µg/mL: [3] | [4] | [5] | [6] | [7] | [8] | [9] | [10]

O=C1CCCC2=C1C(c1cccc3ccccc13)c1cc3cc(OCc4cn(-c5ccnc6cc(Cl)ccc56)nn4)ccc3cc1O2 (configuration not stated)
16 µg/mL: [1] | [2]
